Test results reported in ChEMBL document CHEMBL5608215, “Development of amphipathic derivatives of thymol and carvacrol as potent broad-spectrum antibacterial agents” (Eur J Med Chem, 2024).
Values after ≈ are worked out from the molar mass of the structure shown.

How the values were obtained:
Type in all cases: functional
[1] = tested on: Staphylococcus aureus; assay: Antibacterial activity against Staphylococcus aureus ATCC29213 by CLSI based serial dilution method
[2] = tested on: Staphylococcus aureus; assay: Antibacterial activity against methicillin-resistant Staphylococcus aureus 21-5 by CLSI based serial dilution method
[3] = tested on: Enterococcus faecalis; assay: Antibacterial activity against Enterococcus faecalis ATCC29212 by CLSI based serial dilution method
[4] = tested on: Enterococcus; assay: Antibacterial activity against vancomycin-resistant Enterococcus ATCC51299 by CLSI based serial dilution method
[5] = tested on: Escherichia coli; assay: Antibacterial activity against Escherichia coli ATCC25922 by CLSI based serial dilution method
[6] = tested on: Pseudomonas aeruginosa; assay: Antibacterial activity against Pseudomonas aeruginosa ATCC27853 by CLSI based serial dilution method

SMILES | MIC [1] [µg/mL] | MIC [2] [µg/mL] | MIC [3] [µg/mL] | MIC [4] [µg/mL] | MIC [5] [µg/mL] | MIC [6] [µg/mL]
CCCCNC(=O)C[N+](C)(C)CCCCCOc1cc(C(C)C)ccc1C.[Br-] | 16 | 16 | 16 | 128 | > 64 | > 128
Cc1ccc(C(C)C)cc1OCCCCC[N+](C)(C)CC(=O)N(C(C)C)C(C)C.[Br-] | 4 | 8 | 8 | 8 | 64 | > 128
Cc1ccc(C(C)C)cc1OCCCC[N+](C)(C)CC(=O)N(CC(C)C)CC(C)C.[Br-] | 4 | 4 | 8 | 8 | 64 | > 128
CCCCNC(=O)C[N+](C)(C)CCCOc1cc(C)ccc1C(C)C.[Br-] | 32 | 32 | 64 | 128 | 128 | > 128
Cc1ccc(C(C)C)cc1OCCCCC[N+](C)(C)CC(=O)N1CCOCC1.[Br-] | 128 | 128 | 128 | > 128 | > 128 | > 128
CCCN(CCC)C(=O)C[N+](C)(C)CCCCOc1cc(C(C)C)ccc1C.[Br-] | 16 | 32 | 32 | 64 | 128 | > 128
CCCCCNC(=O)C[N+](C)(C)CCCCOc1cc(C)ccc1C(C)C.[Br-] | 8 | 8 | 16 | 32 | 32 | > 128
CCCNC(=O)C[N+](C)(C)CCCCCOc1cc(C)ccc1C(C)C.[Br-] | 32 | 32 | 64 | 128 | 128 | > 128
CCCNC(=O)C[N+](C)(C)CCCOc1cc(C)ccc1C(C)C.[Br-] | 64 | 128 | 128 | > 128 | > 128 | > 128
Cc1ccc(C(C)C)cc1OCCC[N+](C)(C)CC(=O)N1CCSCC1.[Br-] | 64 | 128 | 64 | > 128 | 128 | > 128
CCCCCCN(CCCCCC)C(=O)C[N+](C)(C)CCCCCOc1cc(C(C)C)ccc1C.[Br-] | 1 | 16 | 1 | 1 | 8 | 16
Cc1ccc(C(C)C)cc1OCCC[N+](C)(C)CC(=O)N1CCOCC1.[Br-] | 128 | > 128 | 128 | > 128 | > 128 | > 128
CCCCNC(=O)C[N+](C)(C)CCCOc1cc(C(C)C)ccc1C.[Br-] | 32 | 64 | 32 | 64 | 64 | > 128
Cc1ccc(C(C)C)cc1O [CARVACROL] | > 128 | > 128 | 128 (≈ 852 µM) | > 128 | 128 (≈ 852 µM) | > 128
CCCCCNC(=O)C[N+](C)(C)CCCCOc1cc(C(C)C)ccc1C.[Br-] | 4 | 8 | 8 | 16 | 16 | 128
Cc1ccc(C(C)C)c(OCCCC[N+](C)(C)CC(=O)N2CCSCC2)c1.[Br-] | 64 | 64 | 64 | > 128 | > 128 | > 128
CCCCN(CCCC)C(=O)C[N+](C)(C)CCCOc1cc(C(C)C)ccc1C.[Br-] | 4 | 8 | 8 | 16 | 64 | > 128

SMILES | MIC [1] [µg/mL] | MIC [2] [µg/mL] | MIC [3] [µg/mL] | MIC [4] [µg/mL] | MIC [5] [µg/mL] | MIC [6] [µg/mL]
CCCCCCCNC(=O)C[N+](C)(C)CCCOc1cc(C(C)C)ccc1C.[Br-] | 2 | 16 | 2 | 4 | 8 | 16
CCCCN(CCCC)C(=O)C[N+](C)(C)CCCCOc1cc(C(C)C)ccc1C.[Br-] | 2 | 4 | 4 | 16 | 32 | 128
CCCCCCNC(=O)C[N+](C)(C)CCCCCOc1cc(C(C)C)ccc1C.[Br-] | 2 | 2 | 2 | 8 | 8 | 16
CCCCCCCNC(=O)C[N+](C)(C)CCCCOc1cc(C(C)C)ccc1C.[Br-] | 1 | 16 | 2 | 4 | 4 | 16
CCCCCCCNC(=O)C[N+](C)(C)CCCOc1cc(C)ccc1C(C)C.[Br-] | 1 | 8 | 2 | 4 | 4 | 16
Cc1ccc(C(C)C)cc1OCCCC[N+](C)(C)CC(=O)N1CCOCC1.[Br-] | > 128 | > 128 | > 128 | > 128 | > 128 | > 128
Cc1ccc(C(C)C)c(OCCC[N+](C)(C)CC(=O)N2CCOCC2)c1.[Br-] | > 128 | > 128 | > 128 | > 128 | 128 | > 128
CCCNC(=O)C[N+](C)(C)CCCCOc1cc(C(C)C)ccc1C.[Br-] | 64 | > 128 | 64 | > 128 | 128 | > 128
Cc1ccc(C(C)C)c(OCCCCC[N+](C)(C)CC(=O)N(CC(C)C)CC(C)C)c1.[Br-] | 2 | 2 | 4 | 8 | 32 | 128
Cc1ccc(C(C)C)c(OCCCCC[N+](C)(C)CC(=O)N2CCSCC2)c1.[Br-] | 32 | 32 | 32 | 128 | 128 | > 128
CCCCCCN(CCCCCC)C(=O)C[N+](C)(C)CCCOc1cc(C)ccc1C(C)C.[Br-] | 16 | > 128 | 16 | 32 | 128 | > 128
Cc1ccc(C(C)C)c(OCCCCC[N+](C)(C)CC(=O)N2CCOCC2)c1.[Br-] | 128 | > 128 | 128 | > 128 | > 128 | > 128
CCCCCCNC(=O)C[N+](C)(C)CCCCOc1cc(C(C)C)ccc1C.[Br-] | 2 | 8 | 4 | 8 | 16 | 32
Cc1ccc(C(C)C)cc1OCCCCC[N+](C)(C)CC(=O)N(CC(C)C)CC(C)C.[Br-] | 2 | 4 | 4 | 64 | 32 | 64
CCCCN(CCCC)C(=O)C[N+](C)(C)CCCOc1cc(C)ccc1C(C)C.[Br-] | 8 | 8 | 16 | 32 | 128 | > 128
CCCNC(=O)C[N+](C)(C)CCCCCOc1cc(C(C)C)ccc1C.[Br-] | 32 | 128 | 64 | 128 | 128 | > 128
